Reference: ChEMBL document CHEMBL4270577, “Synthesis, anticancer activity and molecular modeling studies of 1,2,4-triazole derivatives as EGFR inhibitors” (Eur J Med Chem, 2018)

Legend:
[1] = test system: BT-549; test: Growth inhibition of human BT549 cells at 10 uM incubated for 48 hrs by sulforhodamine B assay relative to control; format: functional; conditions: BT-549, 48 h, read-out: GI
[2] = test system: MCF7; test: Growth inhibition of human MCF7 cells at 10 uM incubated for 48 hrs by sulforhodamine B assay relative to control; format: functional; conditions: MCF7, 48 h, read-out: GI
[3] = test system: MIA PaCa-2; test: Antiproliferative activity against human MIAPaCa2 cells after 48 hrs by propidium iodide staining-based fluorometric analysis; format: functional, cell-based; conditions: MIA PaCa-2, 48 h
[4] = test system: LOX IMVI; test: Growth inhibition of human LOXIMVI cells at 10 uM incubated for 48 hrs by sulforhodamine B assay relative to control; format: functional; conditions: read-out: GI
[5] = test system: K562; test: Growth inhibition of human K562 cells at 10 uM incubated for 48 hrs by sulforhodamine B assay relative to control; format: functional; conditions: K562, 48 h, read-out: GI
[6] = test system: SNB-75; test: Growth inhibition of human SNB75 cells at 10 uM incubated for 48 hrs by sulforhodamine B assay relative to control; format: functional; conditions: SNB-75, 48 h, read-out: GI
[7] = test system: PC-3; test: Growth inhibition of human PC3 cells at 10 uM incubated for 48 hrs by sulforhodamine B assay relative to control; format: functional; conditions: PC-3, 48 h, read-out: GI
[8] = test system: ACHN; test: Growth inhibition of human ACHN cells at 10 uM incubated for 48 hrs by sulforhodamine B assay relative to control; format: functional; conditions: read-out: GI
[9] = test system: UO-31; test: Growth inhibition of human UO31 cells at 10 uM incubated for 48 hrs by sulforhodamine B assay relative to control; format: functional; conditions: UO-31, 48 h, read-out: GI
[10] = test system: HOP-92; test: Growth inhibition of human HOP92 cells at 10 uM incubated for 48 hrs by sulforhodamine B assay relative to control; format: functional; conditions: HOP-92, 48 h, read-out: GI
[11] = test system: M14; test: Growth inhibition of human M14 cells at 10 uM incubated for 48 hrs by sulforhodamine B assay relative to control; format: functional; conditions: M14, 48 h, read-out: GI
[12] = test system: CCRF-CEM; test: Growth inhibition of human CCRF-CEM cells at 10 uM incubated for 48 hrs by sulforhodamine B assay relative to control; format: functional; conditions: read-out: GI
[13] = test system: SW-620; test: Growth inhibition of human SW620 cells at 10 uM incubated for 48 hrs by sulforhodamine B assay relative to control; format: functional; conditions: SW-620, 48 h, read-out: GI
[14] = test system: HT-29; test: Growth inhibition of human HT-29 cells at 10 uM incubated for 48 hrs by sulforhodamine B assay relative to control; format: functional; conditions: HT-29, 48 h, read-out: GI
[15] = test system: SK-MEL-28; test: Growth inhibition of human SK-MEL-28 cells at 10 uM incubated for 48 hrs by sulforhodamine B assay relative to control; format: functional; conditions: SK-MEL-28, 48 h, read-out: GI
[16] = test system: U-251; test: Growth inhibition of human U251 cells at 10 uM incubated for 48 hrs by sulforhodamine B assay relative to control; format: functional; conditions: U-251, 48 h, read-out: GI
[17] = test system: NCI-H460; test: Antiproliferative activity against human H460 cells after 48 hrs by propidium iodide staining-based fluorometric analysis; format: functional, cell-based; conditions: NCI-H460, 48 h
[18] = test system: T47D; test: Growth inhibition of human T47D cells at 10 uM incubated for 48 hrs by sulforhodamine B assay relative to control; format: functional; conditions: read-out: GI
[19] = test system: MDA-MB-468; test: Growth inhibition of human MDA-MB-468 cells at 10 uM incubated for 48 hrs by sulforhodamine B assay relative to control; format: functional; conditions: MDA-MB-468, 48 h, read-out: GI
[20] = test system: NCI-H460; test: Growth inhibition of human NCI-H460 cells at 10 uM incubated for 48 hrs by sulforhodamine B assay relative to control; format: functional; conditions: NCI-H460, 48 h, read-out: GI
[21] = test system: MOLT-4; test: Growth inhibition of human MOLT4 cells at 10 uM incubated for 48 hrs by sulforhodamine B assay relative to control; format: functional; conditions: MOLT-4, 48 h, read-out: GI
[22] = test system: NCI-H23; test: Growth inhibition of human NCI-H23 cells at 10 uM incubated for 48 hrs by sulforhodamine B assay relative to control; format: functional; conditions: NCI-H23, 48 h, read-out: GI
[23] = test system: SK-OV-3; test: Growth inhibition of human SKOV3 cells at 10 uM incubated for 48 hrs by sulforhodamine B assay relative to control; format: functional; conditions: SK-OV-3, 48 h, read-out: GI
[24] = test system: HCC 2998; test: Growth inhibition of human HCC2998 cells at 10 uM incubated for 48 hrs by sulforhodamine B assay relative to control; format: functional; conditions: HCC 2998, 48 h, read-out: GI
[25] = test system: Malme-3M; test: Growth inhibition of human MALME-3M cells at 10 uM incubated for 48 hrs by sulforhodamine B assay relative to control; format: functional; conditions: read-out: GI
[26] = test system: IGROV-1; test: Growth inhibition of human IGROV1 cells at 10 uM incubated for 48 hrs by sulforhodamine B assay relative to control; format: functional; conditions: IGROV-1, 48 h, read-out: GI
[27] = test system: OVCAR-3; test: Growth inhibition of human OVCAR3 cells at 10 uM incubated for 48 hrs by sulforhodamine B assay relative to control; format: functional; conditions: OVCAR-3, 48 h, read-out: GI

| Structure (SMILES) | inhibition of growth at 10 µM [1] | inhibition of growth at 10 µM [2] | IC50 [3] | inhibition of growth at 10 µM [4] | inhibition of growth at 10 µM [5] | inhibition of growth at 10 µM [6] | inhibition of growth at 10 µM [7] | inhibition of growth at 10 µM [8] | inhibition of growth at 10 µM [9] | inhibition of growth at 10 µM [10] | inhibition of growth at 10 µM [11] | inhibition of growth at 10 µM [12] | inhibition of growth at 10 µM [13] | inhibition of growth at 10 µM [14] | inhibition of growth at 10 µM [15] | inhibition of growth at 10 µM [16] | IC50 [17] | inhibition of growth at 10 µM [18] | inhibition of growth at 10 µM [19] | inhibition of growth at 10 µM [20] | also measured |
| --- | --- | --- | --- | --- | --- | --- | --- | --- | --- | --- | --- | --- | --- | --- | --- | --- | --- | --- | --- | --- | --- |
| COc1cc(-c2nc3sc(-c4ccccc4)cn3n2)cc(OC)c1OC | 18% | 23% | 4.7 µM | 33% | 39% | 24% | 53% | 15% | 43% | 50% | 25% | 49% | 6% | 18% | 4% | 32% | 4.8 µM | 55% | 35% | 18% | inhibition of growth at 10 µM [21]: 44%; inhibition of growth at 10 µM [22]: 17% |
| COc1ccc(-c2nc3sc(-c4ccccc4)cn3n2)cc1 | 26% | 74% | 4.9 µM | 45% | 76% | 34% | 33% | 32% | 38% | 32% | 71% | 35% | 64% | 70% | 32% | 21% | 6.9 µM | 65% | 81% | 65% | inhibition of growth at 10 µM [23]: 32%; inhibition of growth at 10 µM [24]: 22%; inhibition of growth at 10 µM [25]: 32%; inhibition of growth at 10 µM [26]: 52%; inhibition of growth at 10 µM [27]: 41%; inhibition of growth at 10 µM [21]: 49%; inhibition of growth at 10 µM [22]: 28% |
